# Tested on: Meloidogyne incognita
# Experiment: Meloidogyne incognita test (MELGIN), sand, gall formation on salad seedlings after 14 days
# Assay type: in vivo
# Conditions: application rate 20 ppm, 100% = no galls, 0% = galls equal to untreated control
# Procedure: 1. Meloidogyne incognita—test (MELGIN) [table] To produce a suitable preparation of active compound, 1 part by weight of active compound is mixed with the stated amount of solvent, and the concentrate is diluted with water to the desired concentration. Vessels are filled with sand, a solution of the active ingredient, a suspension containing eggs and larvae of the southern root-knot nematode (Meloidogyne incognita) and salad seeds. The salad seeds germinate and the seedlings grow. Galls develop in the roots. After 14 days the nematicidal activity is determined on the basis of the percentage of gall formation. 100% means no galls were found; 0% means the number of galls found on the roots of the treated plants was equal to that in untreated control plants.
compound,measurement,value
"N#Cc1cnn(Cc2ccc(Cl)c(S(=O)(=O)NC(=O)c3cn4cc(C(F)(F)F)cc(Cl)c4n3)c2)c1 [Ia-14, 8-chloro-N-({2-chloro-5-[(4-cyano-1H-pyrazol-1-yl)methyl]phenyl}sulfonyl)-6-(trifluoromethyl)imidazo[1,2-a]pyridine-2-carboxamide]",nematicidal activity on the basis of the percentage of gall formation,100%

# Source: patent publication US20160159805A1, “Heterocyclic sulfonylamino(thio)carbonyl-derivatives with nematicidal properties” (BAYER CROPSCIENCE AG, priority 2013, published 2016)
